# Where a chain is given by its changes, count along the chain named.
# What was measured:
# [1] = molecular target: T1, P2X4-Q308T receptor mutant (Homo sapiens, UniProt Q99571, Q308T); assay: cell-based
# T1 sequence (Q99571 1-388 Q308T): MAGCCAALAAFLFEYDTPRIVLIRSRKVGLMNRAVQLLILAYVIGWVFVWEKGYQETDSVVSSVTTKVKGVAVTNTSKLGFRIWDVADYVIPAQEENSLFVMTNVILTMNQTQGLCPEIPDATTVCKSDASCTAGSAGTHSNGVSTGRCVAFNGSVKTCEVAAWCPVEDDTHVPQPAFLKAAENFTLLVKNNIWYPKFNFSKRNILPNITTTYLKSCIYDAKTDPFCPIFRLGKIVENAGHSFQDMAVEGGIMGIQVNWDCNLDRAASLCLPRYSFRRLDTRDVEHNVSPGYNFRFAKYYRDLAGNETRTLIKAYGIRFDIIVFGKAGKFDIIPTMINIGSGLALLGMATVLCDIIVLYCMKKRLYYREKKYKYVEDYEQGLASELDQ
# [2] = molecular target: T2, hP2X4-E307T receptor mutant (Homo sapiens, UniProt Q99571, E307T); assay: Two-electrode voltage clamp (TEVC), P2X4-E307T in Xenopus laevis oocytes; type: cell-based; conditions: TEVC at -60 mV, Xenopus oocytes, P2X4-E307T
# T2 construct: host or cells: Xenopus laevis oocytes injected with cRNA (pNKS2 vector)
# T2 sequence (Q99571 1-388 E307T): T1 sequence (Q99571 1-388 Q308T) with E307T, T308Q
# human wt P2X2 receptor = molecular target: T3, human wt P2X2 receptor (Homo sapiens, UniProt Q9UBL9); assay: ATP-induced calcium influx assay, human wt P2X2 receptor in 1321N1 astrocytoma cells; type: cell-based
# T3 construct: expressed in transfected cells
# T3 sequence (Q9UBL9 1-471): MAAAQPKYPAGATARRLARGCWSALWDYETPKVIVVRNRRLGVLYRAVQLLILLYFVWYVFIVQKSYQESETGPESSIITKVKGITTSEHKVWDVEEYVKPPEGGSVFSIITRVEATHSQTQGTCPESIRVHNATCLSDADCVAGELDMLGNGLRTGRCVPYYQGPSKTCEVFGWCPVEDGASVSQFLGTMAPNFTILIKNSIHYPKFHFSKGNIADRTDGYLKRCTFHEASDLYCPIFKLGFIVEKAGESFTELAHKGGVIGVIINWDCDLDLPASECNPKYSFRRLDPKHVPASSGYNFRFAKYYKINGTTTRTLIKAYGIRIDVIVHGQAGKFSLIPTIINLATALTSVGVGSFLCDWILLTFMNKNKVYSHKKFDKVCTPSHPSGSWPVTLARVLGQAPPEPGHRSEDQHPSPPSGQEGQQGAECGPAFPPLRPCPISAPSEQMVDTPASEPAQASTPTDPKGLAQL
# [3] = molecular target: chimeric P2X4(P2X2) receptor c8^R265-L269 (Homo sapiens, UniProt Q99571, A266P/L269E/R265L); assay: cell-based
# chimeric P2X4(P2X2) receptor c8^R265-L269, sequence (Q99571 whole entry R265L/A266P/L269E): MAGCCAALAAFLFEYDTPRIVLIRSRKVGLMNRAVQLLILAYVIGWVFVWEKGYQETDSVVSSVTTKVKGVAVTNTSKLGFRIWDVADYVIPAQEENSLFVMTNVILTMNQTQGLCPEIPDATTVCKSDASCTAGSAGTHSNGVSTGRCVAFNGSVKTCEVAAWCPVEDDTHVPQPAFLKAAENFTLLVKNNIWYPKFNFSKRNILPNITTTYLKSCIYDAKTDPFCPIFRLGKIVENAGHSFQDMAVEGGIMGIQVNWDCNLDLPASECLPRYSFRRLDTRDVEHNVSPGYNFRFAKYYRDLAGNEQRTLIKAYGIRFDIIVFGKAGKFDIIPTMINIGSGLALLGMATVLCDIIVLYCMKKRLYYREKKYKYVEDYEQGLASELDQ
# [4] = molecular target: T4, wild-type (wt) human (h) P2X4 receptor (Homo sapiens, UniProt Q99571); assay: Two-electrode voltage clamp (TEVC), wt hP2X4 in Xenopus laevis oocytes; type: cell-based; conditions: TEVC at -60 mV
# T4 construct: host or cells: Xenopus laevis oocytes injected with cRNA (pNKS2 vector)
# T4 sequence (Q99571 whole entry): as the sequence (Q99571 whole entry R265L/A266P/L269E) above, with L265R, P266A, E269L counted along it
# Experimental: Xenopus laevis frogs were from Nasco International (Fort Atkinson, WI, USA) and kept at the Core Facility Animal Models (CAM) of the BMC of LMU Munich, Germany (Az: 4.3.2–5682/LMU/BMC/CAM) in accordance with the EU Animal Welfare Act. […] Fifty nanoliters of cRNA (0.5 µg/µL) were injected using a Nanoject II injector (Science Products, Drummond, USA) and oocytes were kept in ND96 (96 mM NaCl, 2 mM KCl, 1 mM MgCl2, 1 mM CaCl2, 5 mM HEPES, pH 7.4–7.5) supplemented with 5 μg/mL gentamicin at 16 °C.
# cDNA encoding human P2X4 receptor (NM_002560.3) was obtained from BioCat GmbH (Heidelberg, Germany) and cloned into the pNKS2 vector[87] using Gibson Assembly (E2621L, New England Biolabs, USA) according to the manufacturer’s instructions. Point mutations were introduced by site-directed mutagenesis using KLD Enzyme Mix (M0554S, New England Biolabs, USA). All constructs were verified by full-length cDNA sequencing (Eurofins Genomics, Germany). Plasmids were linearized with NotI-HF (R3189S, New England Biolabs, USA) and purified using the MinElute Reaction Cleanup Kit (Qiagen, Hilden, Germany). […]
# Statistical analysis was performed with GraphPad Prism version 10 software, and data are presented as means ± SEM. Data were assessed for normality using the Shapiro–Wilk test and for homogeneity of variances using Levene’s test. […]
compound,measurement,setting,value
"Nc1ncnc2c1ncn2[C@@H]1O[C@H](COP(=O)(O)OP(=O)(O)OP(=O)(O)O)[C@@H](O)[C@H]1O [ATP, Adenosine 5′-triphosphate]",EC50,"[1]; ATP EC50, P2X4-Q308T",295 nM
same,EC50,"[1]; ATP pEC50 ± SEM, P2X4-Q308T",275 nM
same,EC50,[2],~10000 nM
same,EC50,"human wt P2X2 receptor; ATP EC50, wt hP2X2, calcium influx",637 nM
same,EC50,"human wt P2X2 receptor; ATP pEC50 ± SEM, wt hP2X2",759 nM
same,EC50,[3],389 nM
same,EC50,[4],~10000 nM

# Reference: PMC12678798, “Discovery of an allosteric binding site for anthraquinones at the human P2X4 receptor” (Nature Communications, 2025)
